# Data published in PubChem BioAssay AID179 (DTP/NCI, 2004).
# pEC50, pIC50: −log10 of the molar value. Calls of active or inactive are those of the source.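 Rule for the calls: active = compounds giving half or more protection of infected cells from virus-caused growth loss, again on retest; inactive = the rest.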
# System: CEM cells HIV-1 protection, formazan growth assay
# Experiment: NCI AIDS Antiviral Assay
# Conditions: for pIC50: measured here: growth of uninfected CEM cells
# Outline: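 CEM (human) cells, HIV-1 infected vs uninfected, 5-point dosing, formazan growth read-out. Retest threshold 50% protection.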
Compound,pEC50,pIC50,outcome
COC(=O)CC[C@@H](C)C1CCC2(C)c3ccc4c(c3C(=O)C[C@]12C)CC[C@H](OC(C)=O)C4(C)C (stereo not given in full),< 4.00,< 4.00,
Clc1cc(C(c2cc(Cl)sc2Cl)c2cc(Cl)sc2Cl)c(Cl)s1,< 4.30,< 4.30,
CCc1n[nH]c(=O)[nH]1,< 3.70,< 3.70,
COP(C)(=O)C(Cc1c[nH]c2ccccc12)NC(=O)OCc1ccccc1 (stereo not given),< 3.70,< 3.70,
c1ccc(CCC2=Nc3ccccc3CO2)cc1,< 3.96,< 3.96,
O=C1CSC(=Nc2ccccc2)N1c1ccc(-n2c(-c3ccc(N=Cc4ccc(Cl)cc4)cc3)nc3ccccc3c2=O)cc1,< 4.25,< 4.25,
CC(=O)N1C(C(=O)NN2CCOCC2)CSC1c1ccccc1 (stereo not given),< 3.70,< 3.70,
CCOC(=O)C(=CN1CCNC1=S)C(=O)OCC,< 3.70,< 3.70,
COc1cc2oc(-c3ccc4c(c3)OCO4)c(OC)c(=O)c2c(OC)c1O,< 3.70,< 3.70,
c1ccc(CNc2nncc3[nH]cnc23)cc1,< 3.70,< 3.70,
COc1ccc2c(c1)CCC1=CC3(CCC12C)SCCS3 (stereo not given),< 4.23,4.99,
O=C(O)c1cc(N=Cc2cc(O)ccc2O)ccc1O,< 3.74,4.64,
N=C(OC1CCCCC1)N1CCCC1,< 3.70,< 3.70,
Cc1cc2nnc(-c3cccc([N+](=O)[O-])c3)n2c2nnnn12,< 3.70,< 3.70,
CCOC(=O)C(C(CC(=O)OC)NC(=O)OCc1ccccc1)C1(C)OCCO1 (stereo not given),< 3.60,< 3.60,
CC1(C)COC(c2ccc(C(F)(F)F)cc2C(O)c2ccc3ccccc3c2)=N1 (stereo not given),,,inactive
O=C1OC2C=CC1C1C(=O)OC(=O)C21 (stereo not given),< 3.70,< 3.70,
O=P(O)(O)C(NCC(O)CN1CCOCC1)P(=O)(O)O (stereo not given),< 3.70,< 3.70,
COc1ccc(-c2oc3cc(OC)c(OC)c(OC)c3c(=O)c2OC)cc1OC,< 3.70,5.42,
CCOC(=O)CCN1C(=O)c2ccc(NC(=O)C(=O)O)cc2S1(=O)=O,< 3.70,< 3.70,
O=C1CCC[C@]2(C1)Cc1ccccc1N2,< 3.33,3.54,
Nc1ncnc2c1ncn2C1C(=O)C(CO)C1CO (stereo not given),< 3.63,< 3.63,
COC(=O)C(C)(C)C(OP(=S)(N(C)C)N(C)C)=C(C)C,< 4.65,< 4.65,

Compound,pEC50,pIC50,outcome
O=[N+]([O-])c1ccc(Cc2nc3ccccc3s2)cc1,< 3.88,4.42,
CCOC(=O)C1=C(NNC(=O)Cc2ccccc2)CSC1=Nc1ccccc1,< 4.74,< 4.74,
CCOC(=O)/C(C(=S)NC)=C(/N)N1CCCC1,< 3.70,< 3.70,
Cc1cc(Cl)ccc1NC(=O)C(=O)Cc1occc(=O)c1O,< 3.53,< 3.53,
Nc1ccc(/C=C/c2ccnc3ccccc23)cc1,4.71,< 3.70,
CCN(CC)CCCCC1CCN(CC(=O)N2c3ccccc3NC(=O)CC2C)CC1 (stereo not given),< 3.60,4.41,
N=c1oc2ccc3ccccc3c2cc1C(N)=S,< 3.70,5.02,
O=C(O/C=C\OC1CCCC1(c1ccccc1)c1ccccc1)c1ccccc1 (stereo not given),< 3.70,5.42,
CCOC(=O)NC(NC(C)CC)(C(F)(F)F)C(F)(F)F (stereo not given),< 3.70,< 3.70,
CC(NCCNC(C)C(=O)O)C(=O)O (stereo not given),< 3.17,< 3.17,
CCOC(=O)c1nc2ccc(C(F)(F)F)cc2nc1Oc1cc(OC)c(OC)c(OC)c1,< 4.00,< 4.00,
COC(=O)C(C)(C)OCc1ccc(C2NC(=O)N(c3cccc(Cl)c3)C(=O)N2c2cccc(Cl)c2)cc1 (stereo not given),< 3.70,4.62,
O=C(Sc1ccccc1)n1nc(Cl)c2ccc([N+](=O)[O-])cc21,< 3.70,4.36,
CC(NNC(=S)N1CCN(c2ccccn2)CC1)c1cccc[n+]1[O-] (stereo not given),< 4.17,6.71,
N#Cc1ccc(Nc2nc3nc[nH]c3c(=O)[nH]2)cc1,< 3.70,< 3.70,
COc1ccc(C(NS(=O)(=O)c2ccc(C)cc2)c2c(C(CBr)OC)c3ccccc3n2S(=O)(=O)c2ccccc2)cc1OC (stereo not given),< 3.82,4.50,
NC(CSS(=O)(=O)O)=NCCCCc1ccccc1,< 3.70,3.97,
COC(=O)C1=C(C)C(=O)[C@]23C(CCCC[C@H]12)C(=O)[C@H](C(=O)OC)C3C (stereo not given in full),< 3.70,< 3.70,
CC1(C)CC(/C=C\c2coc3ccc(Cl)cc3c2=O)=C(C#N)C(=O)O1,< 5.12,< 5.12,
COC(CC1(OC)OC(=O)C=C1N)OC (stereo not given),,,inactive
O=c1ccn(C2OC(COC3CCCCO3)C(OC3CCCCO3)C2OC2CCCCO2)c(=O)n1-c1ccccc1 (stereo not given),< 3.70,< 3.70,
C/C(=N\NC(C)(C)C)c1sc(-c2nc(C)c(/C(C)=N/NC(C)(C)C)s2)nc1C,< 4.35,< 4.35,
CCOC(=O)Cc1csc2[n+]1C(=O)/C(=C/c1cccc(OC)c1O)S2,< 3.70,3.76,

Compound,pEC50,pIC50,outcome
C=C(C)C(C(=O)OC(c1ccccc1)c1ccccc1)N1C(=O)C(NC(=O)COc2ccccc2)C1SSc1nc2ccccc2s1 (stereo not given),< 3.70,5.08,
CC(C)=CC1(C)/C(=N\O)C(C)(CC(C)C)C(=O)N1O (stereo not given),< 3.03,< 3.03,
NNC(=O)CC(=O)Nc1ccc(C(=O)O)cc1,< 3.70,< 3.70,
COc1ccc(Nc2nc3ccccc3nc2-c2cccs2)cc1,< 4.81,< 4.81,
COC1=CC(=O)C2C(C1=O)C(c1ccc(OC)c(OC)c1)[C@H]2C (stereo not given in full),< 4.92,< 4.92,
COC(=O)/C(=N\NC(=S)NN)C(C(=O)OC)C(=O)C(=O)Nc1cccc(C(F)(F)F)c1 (stereo not given),< 3.27,3.62,
C=CC(=O)NC(N)=NC#N,< 2.74,4.22,
CC(C)=CCC/C(C)=C/CC/C(C)=C/Cc1c[nH]c2ccccc12,< 5.21,< 5.21,
CN(C)CCC(=O)CCN(C)C,< 2.99,3.73,
O=c1c2cccnc2ncn1CCCN1CCCCC1,,,inactive
O=C1NC(N2CCCC(CO)C2)=N/C1=C\c1ccc(O)cc1 (stereo not given),< 3.70,3.94,
O=C1C(c2ccccc2Cl)[C@H]2CC=C[C@H]2N1O (stereo not given in full),,,inactive
O=C(O)c1ccc(NNc2cc(=O)[nH]c(=O)[nH]2)cc1,< 3.70,3.97,
CN(C)C=Nc1nncc2n[nH]nc12,< 3.70,< 3.70,
O=C1C=CC(=O)c2c1ccc1c2[nH]c2ccccc21,,,inactive
Cn1c(O)c(N=NC(=S)NC(=O)C23CC4CC(CC(C4)C2)C3)c2ccccc21,,,inactive
COc1ccc(C(=O)Nc2ccc(S(=O)(=O)NCC(=O)O)cc2)cc1,,,inactive
N#Cc1c2nc3ccccc3nc2n2ccc3ccccc3c12,< 3.70,< 3.70,
CCOC(CN=c1nc(N(C)C)ss1)OCC,,,inactive
O=C(Nc1cccc(C(=O)Nc2ccc(C3=NCCN3)cc2)c1)c1ccc(C2=NCCN2)cc1,5.04,3.81,
COc1ccc(NC2Oc3cc4c(cc3C(c3cc(OC)c(OC)c(OC)c3)C2C)OCO4)cc1 (stereo not given),< 4.70,6.40,
O=c1ccc2cc([N+](=O)[O-])ccc2o1,< 3.19,3.44,
O=c1[nH]c(/C=C(\O)c2ccncc2)nc2ccccc12,< 5.55,< 5.55,

Compound,pEC50,pIC50,outcome
CC(=O)NC(N)=NC#N,< 2.70,< 2.70,
CC(=O)NC(CCCN(Cc1ccccc1)C(=O)NCCCl)C(=O)NCc1ccccc1 (stereo not given),< 3.41,3.46,
C[N+](C)(CCNc1ccc(NCC[N+](C)(C)Cc2ccc([N+](=O)[O-])cc2)c2c1C(=O)c1ccccc1C2=O)Cc1ccc([N+](=O)[O-])cc1,< 3.82,< 3.82,
CC1=C(C(=O)NCc2ccccc2)C(c2ccc(C3C(C(=O)NCc4ccccc4)=C(C)NC(C)=C3C(=O)NCc3ccccc3)cc2)C(C(=O)NCc2ccccc2)=C(C)N1,< 4.92,5.10,
CC(C)(C)[Si](C)(C)OCC1OC(n2cnc3c(=O)[nH]c(NCc4ccccc4)nc32)C(O[Si](C)(C)C(C)(C)C)C1O[Si](C)(C)C(C)(C)C (stereo not given),< 3.70,3.85,
COC(=O)C12C3C4C1C1C2C3C41C(=O)NC(C)(C)CC(=O)O (stereo not given),< 3.70,< 3.70,
COc1ccc2c(c1OC)OC1CNc3cc(C)c(C)cc3N=C1C2 (stereo not given),5.87,5.34,
O=C1OC(OC/C(Br)=C(\Br)COC2OC(=O)C(Cl)=C2Cl)C(Cl)=C1Cl (stereo not given),< 3.70,5.51,
COc1ccc(-c2c(-c3ccccc3)c(C)nc3[nH]c(=S)[nH]c(=S)c23)cc1OC,< 3.70,4.36,
Nc1nc2c(C(=O)O)c3ccc([N+](=O)[O-])cc3c(=O)n2c2ccccc12,< 3.70,4.80,
O=C(CC(=O)c1cccc2ccccc12)C(=O)Nc1ccc(Cl)cc1,,,inactive
CCc1c2c(c(C)n1C)C(c1ccccc1)=NCC(=O)N2,< 3.33,3.53,
Cc1[nH]ccc2c1[nH]c1cc(=O)ccc12,< 2.97,4.78,
NC(=O)C(NN=C(c1ccccc1)c1ccccc1)c1ccccc1 (stereo not given),,,inactive
COC(=O)c1cc(C(=CC(=O)O)c2cc(Cl)c(OC)c(C(=O)OC)c2)cc(Cl)c1OC,< 3.70,4.02,
COc1ccc(N2C(=O)C3c4[nH]c5ccccc5c4C4CCCCCCC4C3C2=O)cc1 (stereo not given),< 5.06,< 5.06,
O=C(NNc1nc2cccnc2n2ccnc12)c1cnccn1,< 6.00,6.87,
O=C1C(C(O)(C(F)(F)Cl)C(F)(F)Cl)CCCC1C(O)(C(F)(F)Cl)C(F)(F)Cl (stereo not given),< 3.70,5.00,
N#CCCN(CCC#N)c1ccc(/C=C2\SC(=S)NC2=O)cc1Br,< 3.70,< 3.70,
O=C1c2ccccc2C(=O)N1Cc1ccccc1,< 3.70,< 3.70,
COC1=CC2(C=CC1=O)CCC(=O)O2 (stereo not given),4.98,3.76,
